Measured values: patent publication US20220257621A1, “CANCER CELL PROLIFERATION SUPPRESSION AGENT AND COMPOSITION FOR SUPPRESSING PROLIFERATION OF CANCER CELLS” (SHOWA DENKO K.K., priority 2019, published 2022)

Key:
[1] = test system: normal human epidermal keratinocytes (NHEK); assay: Effect (2) of suppressing ROS production, inositol derivative and Na tocopherol phosphate; format: cell-based; details: Na tocopherol phosphate 10 μM and/or inositol derivative 0.001% by mass 24 h, then atmospheric dust 500 μg/mL 48 h, control without dust = 1, dust + 0.05% ethanol = 2.41
Experimental: The effect of the inositol derivative and Na tocopherol phosphate on suppressing ROS production in normal human epidermal keratinocytes (NHEK, manufactured by KURABO INDUSTRIES LTD.) was measured under the following conditions. As the following Na tocopherol phosphate, TPNa (registered trademark) (manufactured by Showa Denko K. K.), which is sodium d1-α-tocopheryl phosphate, was used.
The NHEK cells were seeded in a HuMedia KG2 medium manufactured by KURABO INDUSTRIES LTD. at the seeding density of 10000 cells/cm^2, and cultured for 24 hours under the conditions of 37° C. and 5% CO2. Next, Na tocopherol phosphate alone (final concentration of 10 μM in the culture medium), the inositol derivative alone (final concentration of 0.001% by mass in the culture medium), or a combination of Na tocopherol phosphate (final concentration of 10 μM in the culture medium) and the inositol derivative (final concentration of 0.001% by mass in the culture medium) was added to the culture medium. […] Thereafter, the ROS production amount was measured using a ROS assay kit (manufactured by OZ BIOSCIENCES). […] After washing the cells with PBS again, 100 μL of PBS was added, and the fluorescence intensity at an excitation wavelength of 485 nm/an absorption wavelength of 535 nm was measured with a microplate reader i-Control (manufactured by Tecan Group Ltd.). […]

[2] = test system: cell line derived from Lewis lung carcinoma (LLC); assay: Effect (2) of suppressing proliferation of cancer cells, inositol derivative and Na tocopherol phosphate (WST-8); format: cell-based; details: Na tocopherol phosphate 10 μM and/or inositol derivative 0.001% by mass 24 h, then atmospheric dust 500 μg/mL 48 h, control without dust = 1, dust + 0.05% ethanol = 1.69
Experimental: The effect of the inositol derivative and Na tocopherol phosphate on suppressing the proliferation of cancer cells in a cell line derived from Lewis lung carcinoma (LLC, JCRB Cell Bank) was measured under the following conditions. As the following Na tocopherol phosphate, TPNa (registered trademark) (manufactured by Showa Denko K. K.), which is sodium d1-α-tocopheryl phosphate, was used.
The LLC cells were seeded at the seeding density of 50000 cells/cm^2 in a culture medium in which a Ham F10 medium and an L15 medium (both manufactured by Sigma-Aldrich) were mixed at the ratio of 3:7 (volume ratio), and cultured for 24 hours under the conditions of 37° C. and 5% CO2. Next, Na tocopherol phosphate alone (final concentration of 10 μM in the culture medium), the inositol derivative alone (final concentration of 0.001% by mass in the culture medium), or a combination of Na tocopherol phosphate (final concentration of 10 μM in the culture medium) and the inositol derivative (final concentration of 0.001% by mass in the culture medium) was added to the culture medium. […] Thereafter, the culture medium was replaced with a medium containing 10% (V/V) of WST-8 of Nacalai Tesque Inc., and after further culturing for 3 hours, the absorbance at the wavelength of 450 nm was measured with a microplate reader i-Control (manufactured by Tecan Group Ltd.). […]

Which “Relative ROS production amount” value [1] does the source give for `Cc1c(C)c2c(c(C)c1OP(=O)([O-])[O-])CCC(C)(CCCC(C)CCCC(C)CCCC(C)C)O2.[Na+].[Na+]` (stereo not drawn) [Na tocopherol phosphate, sodium d1-α-tocopheryl phosphate] here?
The value was 1.53.

And the “Relative cell proliferation amount” value [2]?
The value was 1.33.
